Legend:
[1] = molecular target: T1, Candida antarctica lipase (CAL-B, Chirazyme L-2) (Moesziomyces antarcticus, UniProt P41365); test: Lipase-catalyzed transesterification with n-hexanol in toluene; type: biochemical; conditions: for equilibrium constant (value in brackets): transesterification of ethyl esters with n-hexanol, calculated according to Anthonsen et al.
T1 construct: purchased Boehringer Mannheim, Penzberg, Germany
T1 sequence (P41365 26-342): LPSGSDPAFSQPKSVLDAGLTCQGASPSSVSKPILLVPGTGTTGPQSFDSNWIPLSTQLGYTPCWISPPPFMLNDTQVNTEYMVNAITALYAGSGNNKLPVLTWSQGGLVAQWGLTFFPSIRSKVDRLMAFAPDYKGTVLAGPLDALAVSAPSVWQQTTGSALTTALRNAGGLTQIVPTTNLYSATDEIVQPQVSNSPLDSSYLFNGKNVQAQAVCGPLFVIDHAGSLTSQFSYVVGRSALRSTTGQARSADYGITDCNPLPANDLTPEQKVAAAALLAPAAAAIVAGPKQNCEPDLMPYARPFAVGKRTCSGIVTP
Experimental: (§1) If not described otherwise, the ^1 H-NMR spectra were recorded at 250.1 and 500.1 MHz and the ^13 C-NMR spectra at 62.9 and 125.7 MHz in CDCl3 using tetramethylsilane as an internal standard. In cases in which both the racemate and the enatiomeric pure compounds were synthesized, the racemate was used for the full characterization of the compound. […] The gas-chromatography (=GC) analyses were carried out with an Optima 5 column (25 m×0.25 mm; Macherey & Nagel, Duren, Germany) for the determination of the conversion and purity and with a heptakis-(2,3-di-O-acetyl-6-O-TBDMS) -β-cyclodextrin column (25 m×0.25 mm, Prof. W. A. Konig, University of Hamburg, Germany) for the determination of the enantiomeric excess. The immobilized lipase used was Candida antarctica lipase (Chirazyme L-2, c.-f., C2, 5000 U/g) from Boehringer Mannheim, Penzberg, Germany, if not described otherwise. The absolute configuration of the biotransformation products was determined by means of comparison with optically pure standards, which were prepared from the commercially obtainable optically pure carboxylic acids. The enantiomeric excess was calculated by comparison with literature values. The enantioselectivity was determined using the formula E=[ln{(1-c)×(1-ees)}]/[ln{(1-c)×(1+ees)}],
Lipase-catalyzed transesterification: 100 μl of the vinyl esters (0.52 mmol) and 560 μl of n-hexanol (4.49 mmol) were […] stirrer. The reaction was started by addition of 100 mg of CAL-B lipase (500 U) (see Scheme II). Samples were taken from the reaction, diluted with toluene and the lipase was removed by means of centrifugation. The samples were analyzed by GC using the Optima 5 column. After ending the reaction by filtration, product and unreacted substrate were purified by flash chromatography. The enantiomeric purities were determined by means of the specific rotation. In the case of the substrates (±)-3, (±) -4 and (±) -6, the optical purity was additionally determined by means of chiral GC. The ethyl esters were correspondingly reacted as a comparison experiment (see Scheme III). The hydrolysis of the ethyl esters was carried out as a further comparison experiment (see Scheme III).

[2] = molecular target: T1, Candida antarctica lipase (CAL-B, Chirazyme L-2); test: Hydrolysis of the ethyl esters with pH-statting; type: biochemical; conditions: hydrolysis in phosphate buffer 50 mM, pH 7.5, 40° C., calculated according to Chen et al.
Experimental: as §1
The hydrolysis of the ethyl esters was carried out with pH-statting. In general, 1 mmol of substrate (6-8) was taken up at 40° C. in 20 ml of phosphate buffer (50 mM, pH 7.5). 200 mg of CAL-B (1000 U) were added at the start of the reaction. The pH was kept constant through the reaction using 0.1 N NaOH. After consumption of base indicated a marked conversion of the substrate, unused substrate was removed by means of extraction with heptane. […] The organic phases were dried using Na2 SO4 and the enantiomeric excess was determined for all compounds by means of the specific rotation and for (±)-6 additionally by means of chiral GC.

[3] = molecular target: T2, lipase CAL-B (Moesziomyces antarcticus, UniProt P41365); test: Lipase-catalyzed transesterification with methanol in toluene; type: biochemical, Candida antarctica; conditions: 40° C., 5 hours, calculated from conversion and eep
T2 construct: purchased Boehringer Mannheim
T2 sequence (P41365 26-342): T1 sequence (P41365 26-342)
Experimental: The racemic ibuprofen vinyl ester (209 mg, 0.90 mmol) and methanol (240 mg, 7.5 mmol) were disolved in 8 ml toluene and stirred at 40° C. The reaction was started by adding 416 mg of lipase CAL-B (L-2, c.f., C2, lyo.; Boehringer Mannheim). After 5 hours, the reaction was completed by filtering off the lipase, and the reaction mixture was analyzed by gas chromatography in a chiral column (2,3 di-O-methyl-6-O-pentyl-ε-cyclodextrin). The product and unreacted substrate were purified by flash chromatography on silica gel (developer: ligroin/diethyl ether 35:1). Conversion (GC): 40.5%; Yields: ibuprofen methyl ester 64 mg (0.29 mmol; 32%), eep =76% (GC); ibuprofen vinyl ester 98 mg (0.42 mmol, 47%), ees =[…] (calculated from conversion and eep). An E value of 12 is calculated from conversion and eep.

[4] = transesterification with n-hexanol in toluene, 40° C., CAL-B, calculated according to Chen et al.

Row | Compound | E (enantioselectivity) [1, 4] | E (enantioselectivity) ([1]; transesterification with n-hexanol in toluene at room temperature (about 23° C.)) | equilibrium constant (value in brackets) ([1]; 40° C.) | E (enantioselectivity) [2] | E value [3]
1 | C=COC(=O)C(CC)c1ccccc1 (racemic) [(±)-3, Vinyl (±)-2-phenylbutyrate] | > 100 |  |  |  | 
2 | C=COC(=O)C(C)c1ccccc1 (racemic) [(±)-4, Vinyl (±)-2-phenylpropionate] | 26 |  |  |  | 
3 | C=COC(=O)CC(C)c1ccccc1 (racemic) [(±)-5, Vinyl (±)-3-phenylbutyrate] | 13 | 23 |  |  | 
4 | CCOC(=O)C(CC)c1ccccc1 (racemic) [(±)-6, Ethyl (±)-2-phenylbutyrate] | 5.7 |  | 110 | 3.7 | 
5 | CCOC(=O)C(C)c1ccccc1 (racemic) [(±)-7, Ethyl (±)-2-phenylpropionate] | 6.8 |  | 123 | 3.5 | 
6 | CCOC(=O)CC(C)c1ccccc1 (racemic) [(±)-8, Ethyl (±) -3-phenylbutyrate] | 4.9 |  | 135 | 9 | 
7 | C=COC(=O)C(C)c1ccc(CC(C)C)cc1 (racemic) [ibuprofen vinyl ester] |  |  |  |  | 12

Source: US6201147A, “Process for the resolution of esters of arylalkylcarboxylic acids” (BASF Aktiengesellschaft, priority 1998, dated 2001)
